Reference: patent US12129223B2, “Lipids for use in lipid nanoparticle formulations” (Acuitas Therapeutics, Inc., priority 2021, dated 2024)

Columns and labels:
human IgG in mouse serum = assay: Immunoglobulin G (IgG) mRNA in vivo evaluation using lipid nanoparticle compositions; parameters: species or system mice; conditions: LNP with IgG mRNA, tail vein injection, serum 24 hours after administration; for Serum IgG @ 0.3 mg/kg: 0.3 mg mRNA/kg; for Serum IgG @ 1.0 mg/kg: 1.0 mg mRNA/kg
Experimental: (§1) A lipid of structure (I), DSPC, cholesterol and PEG-lipid are solubilized in ethanol at a molar ratio of 50:10:38.5:1.5 or 47.5:10:40.7:1.8. Lipid nanoparticles (LNP) are prepared at a total lipid to mRNA weight ratio of approximately 10:1 to 40:1. Briefly, the mRNA is diluted to 0.2 mg/mL in 10 to 50 mM citrate buffer, pH 4 or 10 to 25 mM acetate buffer, pH 4. Syringe pumps are used to mix the ethanolic lipid solution with the mRNA aqueous solution at a ratio of about 1:5 to 1:3 (vol/vol) with total flow rates above 15 mL/min. The ethanol is then removed and the external buffer replaced with PBS by dialysis. Finally, the lipid nanoparticles are filtered through a 0.2 µm pore sterile filter.
Studies are performed in 6-8 week old CD-1/ICR mice (Envigo) according to guidelines established by an institutional animal care committee (ACC) and the Canadian Council on Animal Care (CCAC). Varying doses of mRNA-lipid nanoparticle are systemically administered by tail vein injection and animals euthanized at a specific time point (e.g., 24 hours) post-administration. The whole blood is collected, and the serum subsequentially separated by centrifuging the tubes of the whole blood at 2000×g for 10 minutes at 4° C. and stored at −80° C. until use for analysis.
For immunoglobulin G (IgG) ELISA (Life Diagnostics Human IgG ELISA kit), the serum samples are diluted at 100 to 15000 folds with 1×diluent solution. 100 μL of diluted serum is dispensed into anti-human IgG coated 96-well plate in duplicate alongside human IgG standards and incubated in a plate shaker at 150 rpm at 25° C. for 45 minutes. The wells are washed 5 times with 1× wash solution using a plate washer (400 μL/well). 100 μL of HRP conjugate is added into each well and incubated in a plate shaker at the same condition above. The wells are washed 5 times again with 1× wash solution using a plate washer (400 μL/well). 100 μL of TMB reagent is added into each well and incubated in a plate shaker at the same condition above. The reaction is stopped by adding 100 μL of Stop solution to each well. The absorbance is read at 450 nm (A450) with a microplate reader. The amount of human IgG in mouse serum is determined by plotting A450 values for the assay standard against human IgG concentration.
(§2) Representative compounds of the disclosure shown in Table 2 were formulated using the following molar ratio: 50% cationic lipid/10% distearoylphosphatidylcholine (DSPC)/38.5% Cholesterol/1.5% PEG lipid 2-[2-(ω-methoxy(polyethyleneglycol2000)ethoxy]-N,N-ditetradecyl acetamide) or 47.5% cationic lipid/10% DSPC/40.7% Cholesterol/1.8% PEG lipid. Relative activity was determined by measuring luciferase expression in the liver 4 hours following administration via tail vein injection as described in Example 1 or by measuring the amount of human IgG in mouse serum as described in example 2. The activity was compared at a dose of 1.0 or 0.5 or 0.3 mg mRNA/kg and expressed as ng luciferase/g liver measured 4 hours after administration, as described in Example 1 or as μg IgG/mL serum measured 24 hours after administration, as described in Example 2. Compound numbers in Table 2 refer to the compound numbers of Table 1.

[1] = test system: luciferase expression in the liver; assay: Luciferase mRNA in vivo evaluation using lipid nanoparticle compositions; parameters: species or system mice; conditions: LNP with FLuc mRNA, tail vein injection, ng luciferase/g liver 4 hours after administration; for Liver Luc @ 0.3 mg/kg: 0.3 mg mRNA/kg; for Liver Luc @ 1.0 mg/kg: 1.0 mg mRNA/kg
Experimental: as §1
Studies are performed in 6-8 week old female C57BL/6 mice (Charles River) 8-10 week old CD-1 (Harlan) mice (Charles River) according to guidelines established by an institutional animal care committee (ACC) and the Canadian Council on Animal Care (CCAC). Varying doses of mRNA-lipid nanoparticle are systemically administered by tail vein injection and animals euthanized at a specific time point (e.g., 4 hours) post-administration. Liver and spleen are collected in pre-weighed tubes, weights determined, immediately snap frozen in liquid nitrogen and stored at −80° C. until processing for analysis.
For liver, approximately 50 mg is dissected for analyses in a 2 mL FastPrep tubes (MP Biomedicals, Solon OH). ¼″ ceramic sphere (MP Biomedicals) is added to each tube and 500 μL of Glo Lysis Buffer—GLB (Promega, Madison WI) equilibrated to room temperature is added to liver tissue. Liver tissues are homogenized with the FastPrep24 instrument (MP Biomedicals) at 2×6.0 m/s for 15 seconds. Homogenate is incubated at room temperature for 5 minutes prior to a 1:4 dilution in GLB and assessed using SteadyGlo Luciferase assay system (Promega). Specifically, 50 μL of diluted tissue homogenate is reacted with 50 μL of SteadyGlo substrate, shaken for 10 seconds followed by 5 minute incubation and then quantitated using a CentroXS^3 LB 960 luminometer (Berthold Technologies, Germany). The amount of protein assayed is determined by using the BCA protein assay kit (Pierce, Rockford, IL). Relative luminescence units (RLU) are then normalized to total μg protein assayed. To convert RLU to ng luciferase a standard curve is generated with QuantiLum Recombinant Luciferase (Promega).
The FLuc mRNA (L-6107) from Trilink Biotechnologies will express a luciferase protein, originally isolated from the firefly, Photinus pyralis. FLuc is commonly used in mammalian cell culture to measure both gene expression and cell viability. It emits bioluminescence in the presence of the substrate, luciferin. This capped and polyadenylated mRNA is fully substituted with 5-methylcytidine and pseudouridine.
as §2

[2] = Determination of pKa of formulated lipids (TNS fluorescence assay in lipid nanoparticles); format: physicochemical; conditions: lipid nanoparticles (compound/DSPC/cholesterol/PEG-lipid), lipid formulated in LNP (lipid/DSPC/cholesterol/PEG-lipid), pH at half-maximal intensity
How it was run: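 LNPs (compound/DSPC/cholesterol/PEG-lipid, 50/10/38.5/1.5 or 47.5:10:40.7:1.8 mol %) diluted to 24 μM lipid in HEPES/MES/ammonium acetate/NaCl buffers, pH 2.5–11, with 1 μM TNS. Fluorescence read at room temperature, ex 321/em 445 nm. pKa taken as pH of half-maximal intensity from sigmoidal fit.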

Compound	Serum IgG @ 0.3 mg/kg (human IgG in mouse serum)	Serum IgG @ 1.0 mg/kg (human IgG in mouse serum)	Liver Luc @ 0.3 mg/kg [1]	Liver Luc @ 1.0 mg/kg [1]	pKa [2]
CCCCCCCCCCN(CCCCCCCCCC)C(=O)CCCCCCCN(CCCCCO)CCCCCCCC(=O)N(CCCCCCCCCC)CCCCCCCCCC [Compound I-21, 8,8′-((5-hydroxypentyl)azanediyl)bis(N,N-didecyloctanamide)]	48.78 ± 6.88 µg/mL	220.38 ± 62.57 µg/mL	29492 ± 4887 ng/g	43216 ± 25636 ng/g	6.54
CCCCCCCCCCN(CCCCCCCCCC)C(=O)CCCCCCCN(CCO)CCCCCCCC(=O)N(CCCCCCCCCC)CCCCCCCCCC [Compound I-22, 8,8′-((2-hydroxyethyl)azanediyl)bis(N,N-didecyloctanamide)]	31.00 ± 9.33 µg/mL	99.12 ± 18.03 µg/mL	12829 ± 3326 ng/g	38933 ± 23162 ng/g	6.47
CCCCCCCCCCN(CCCCCCCCCC)C(=O)CCCCCCCN(CCCCO)CCCCCCCC(=O)N(CCCCCCCCCC)CCCCCCCCCC [Compound I-23, 8,8′-((4-hydroxybutyl)azanediyl)bis(N,N-didecyloctanamide)]	43.34 ± 7.70 µg/mL	103.91 ± 31.29 µg/mL	15876 ± 7588 ng/g	34202 ± 19178 ng/g	6.48
CCCCCCCCCCN(CCCCCCCCCC)C(=O)CCCCCCCN(CCCCCCO)CCCCCCCC(=O)N(CCCCCCCCCC)CCCCCCCCCC [Compound I-24, 8,8′-((6-hydroxyhexyl)azanediyl)bis(N,N-didecyloctanamide)]	27.46 ± 9.22 µg/mL	112.31 ± 14.51 µg/mL	9106 ± 1760 ng/g	38913 ± 14318 ng/g	6.24
